Consider three compounds from patent publication US20220087996A1, “Histone acetylase p300 inhibitor and use thereof” (HINOVA PHARMACEUTICALS INC., priority 2018, published 2022).

The structures appear in SMILES notation.

One assay has as its target T1, histone acetylase p300 (Homo sapiens, UniProt Q09472).
T1 construct: purchased BPS
Nature of the assay: Inhibitory activity on histone acetylase p300 (radioisotope FlashPlate). Type of assay: biochemical. As to conditions: enzyme 0.2 nM, peptide substrate 600 nM, [3H]-Ac-CoA 250 nM; read-out: IC50 against P300. An excerpt:
Using the radioisotope FlashPlate technology, the half inhibitory concentration (IC50) of the compound according to the present invention was detected against histone acetylase p300 (purchased from BPS). […] Under the catalysis of histone acetylase p300, [3H]—Ac group in the isotope-labeled [3H]-Ac-CoA was transferred to the biotinylated histone polypeptide substrate (purchased from GL Biochem Ltd.), and then the biotinylated histone peptide substrate bound to the streptavidin on the FlashPlate board, so that the isotope was close enough to the FlashPlate board. Thus, the radiation energy of isotope could convert the scintillation fluid coated on the FlashPlate board into photons, that was able to be detected. Detailed procedures were as follows:
• 1× reaction buffer: 50 mM Tris-HCl, pH 7.5; 0.01% Tween-20 • Reaction stop solution: 750 μM Ac-CoA solution
Each test compound was dissolved into 10 mM with 100% DMSO, and then each compound was diluted to the desired concentration in Echo 384-well plate. […] 200 nl of 100% DMSO was transferred into the well as the negative control.
p300 was added to 1× reaction buffer to form a 2× enzyme solution (the final concentration of enzyme being 0.2 nM).
The peptide substrate and [3H]-Ac-CoA were added to the 1-fold reaction buffer, to form a 2-fold substrate solution (the final concentration of the substrate being 600 nM and 250 nM, respectively).
10 μl of 2-fold enzyme solution was added to the wells of 384-well reaction plate. […] The plate was centrifuged at 1000 rpm for 1 min and incubated at room temperature for 15 min.
10 μl of 2-fold substrate solution was added to each well of 384-well reaction plate. The plate was centrifuged at 1000 rpm for 1 min, and then reacted at 25° C. for 60 min.
10 μl of reaction stop solution was added to each well of 384-well reaction plate to stop the reaction. 25 μL solution was collected from each well of the test plate and transferred to Flashplate, that was placed at room temperature for 1 h. Then, Flashplate plate was washed three times with 0.1% Tween-20 solution.
4) Reading Data with MicroBeta 2
The data were copied from Microbeta 2. […] The maximum value is the conversion rate of the control DMSO, and the minimum value is the conversion rate of the control without enzyme activity.
The data were imported into Graph Pad Prism5, and the formula “log(inhibitor) vs. response−Variable slope” was used to perform curve fitting, to obtain the half inhibitory concentration (IC50).

The subject of another assay is OCI-AML3. In words: Inhibition of proliferation of OCI-AML3 cells. Type of assay: cell-based. As to conditions: Homo sapiens, OCI-AML-3; Leukemia cell line OCI-AML3; read-out: IC50 against OCI-AML3. The method, then: (§1) 1) CWR22RV1 cells were subcultured in cell culture medium, and the cells in good growth condition were seeded in a 96-well plate, 80 μL for each well, and the cell number in each well was 1500. The plate was incubated overnight in a 37° C., 5% CO2 cell incubator. 2) The drug was prepared as 30 mM stock solution with dimethyl sulfoxide (DMSO). Prior to use, the stock solution was diluted 3 times with DMSO, and then further diluted as 3-fold gradient to obtain 9 concentration gradients. Then, each concentration of compound was diluted 200 times with the culture solution (ensuring that the DMSO concentration in the culture system was 0.1%), and two replicate wells were set for each concentration. 20 μL of diluted compound solution was added to the cell culture well (with final concentrations of 10 μM, 3.3 μM. 1.1 μM . . . ), and the plate was gently shaken to mix. In addition, 3 negative control wells containing only cells and 3 blank control wells containing only culture medium were included (6 wells were each added 20 μL DMSO diluted 200 times with culture medium). 2. Result detection: (1) After culturing for 6 days, 10 μL CCK-8 was added to each well, and the plate was continually cultured in a 37° C., 5% CO2 cell incubator for 2.5 h. (2) The absorbance (OD value) was detected at 450 nm using a multifunctional microplate reader. (3) The data were analyzed by Dose-response-inhibition equation in the software GraphPad Prism6, and the IC50 value was obtained.
(§2) Using the same method as Experimental example 2, CWR22RV1 cells were replaced with tumor cells in Table 3, and the IC50 (nM) of the compound according to the present invention against the activity of these tumor cells was tested and calculated.

The subject of the next assay is Pfeiffer. Nature of the assay: Inhibition of proliferation of Pfeiffer cells. Type of assay: cell-based. As to conditions: Homo sapiens; Lymphoma cell line Pfeiffer; read-out: IC50 against Pfeiffer. The method, then: as §1, §2
A further assay has as its system KARPAS-422. Nature of the assay: Inhibition of proliferation of KARPAS-422 cells. Type of assay: cell-based. As to conditions: Homo sapiens; Lymphoma cell line KARPAS-422; read-out: IC50 against KARPAS-422. The method, then:
as §1, §2

The subject of another assay is MM.1R. Nature of the assay: Inhibition of proliferation of MM.1R cells. Type of assay: cell-based. As to conditions: Lymphoma cell line MM.1R; read-out: IC50 against MM.1R. The method, then: as §1, §2
For a further assay, the system named is MCF-7. In words: Inhibition of proliferation of MCF-7 cells. Type of assay: cell-based. As to conditions: Homo sapiens, MCF7; Breast cancer cell line MCF-7; read-out: IC50 against MCF-7. The method, then:
as §1, §2

In another assay the test system is HCC1428. In words: Inhibition of proliferation of HCC1428 cells. Type of assay: cell-based. As to conditions: Homo sapiens; Breast cancer cell line HCC1428; read-out: IC50 against HCC1428. The method, then:
as §1, §2

Another assay relates to KMS-20. In words: Inhibition of proliferation of KMS-20 cells. Type of assay: cell-based. As to conditions: Multiple myeloma cell line KMS-20; read-out: IC50 against KMS-20. The method, then: as §1, §2
A further assay concerns MM.1S. Nature of the assay: Inhibition of proliferation of MM.1S cells. As to conditions: Homo sapiens, MM1.S; Multiple myeloma cell line MM.1S; read-out: IC50 against MM.1S. Type of assay: cell-based. The method, then: as §1, §2
The test system of the next assay is NCI-H929. Nature of the assay: Inhibition of proliferation of NCI-H929 cells. Type of assay: cell-based. As to conditions: Homo sapiens; Multiple myeloma cell line NCI-H929; read-out: IC50 against NCI-H929. The method, then: as §1, §2
For another assay, the system named is OPM-2. In words: Inhibition of proliferation of OPM-2 cells. Type of assay: cell-based. As to conditions: Homo sapiens; Multiple myeloma cell line OPM-2; read-out: IC50 against OPM-2. The method, then:
as §1, §2

T1 sequence (Q09472 whole entry): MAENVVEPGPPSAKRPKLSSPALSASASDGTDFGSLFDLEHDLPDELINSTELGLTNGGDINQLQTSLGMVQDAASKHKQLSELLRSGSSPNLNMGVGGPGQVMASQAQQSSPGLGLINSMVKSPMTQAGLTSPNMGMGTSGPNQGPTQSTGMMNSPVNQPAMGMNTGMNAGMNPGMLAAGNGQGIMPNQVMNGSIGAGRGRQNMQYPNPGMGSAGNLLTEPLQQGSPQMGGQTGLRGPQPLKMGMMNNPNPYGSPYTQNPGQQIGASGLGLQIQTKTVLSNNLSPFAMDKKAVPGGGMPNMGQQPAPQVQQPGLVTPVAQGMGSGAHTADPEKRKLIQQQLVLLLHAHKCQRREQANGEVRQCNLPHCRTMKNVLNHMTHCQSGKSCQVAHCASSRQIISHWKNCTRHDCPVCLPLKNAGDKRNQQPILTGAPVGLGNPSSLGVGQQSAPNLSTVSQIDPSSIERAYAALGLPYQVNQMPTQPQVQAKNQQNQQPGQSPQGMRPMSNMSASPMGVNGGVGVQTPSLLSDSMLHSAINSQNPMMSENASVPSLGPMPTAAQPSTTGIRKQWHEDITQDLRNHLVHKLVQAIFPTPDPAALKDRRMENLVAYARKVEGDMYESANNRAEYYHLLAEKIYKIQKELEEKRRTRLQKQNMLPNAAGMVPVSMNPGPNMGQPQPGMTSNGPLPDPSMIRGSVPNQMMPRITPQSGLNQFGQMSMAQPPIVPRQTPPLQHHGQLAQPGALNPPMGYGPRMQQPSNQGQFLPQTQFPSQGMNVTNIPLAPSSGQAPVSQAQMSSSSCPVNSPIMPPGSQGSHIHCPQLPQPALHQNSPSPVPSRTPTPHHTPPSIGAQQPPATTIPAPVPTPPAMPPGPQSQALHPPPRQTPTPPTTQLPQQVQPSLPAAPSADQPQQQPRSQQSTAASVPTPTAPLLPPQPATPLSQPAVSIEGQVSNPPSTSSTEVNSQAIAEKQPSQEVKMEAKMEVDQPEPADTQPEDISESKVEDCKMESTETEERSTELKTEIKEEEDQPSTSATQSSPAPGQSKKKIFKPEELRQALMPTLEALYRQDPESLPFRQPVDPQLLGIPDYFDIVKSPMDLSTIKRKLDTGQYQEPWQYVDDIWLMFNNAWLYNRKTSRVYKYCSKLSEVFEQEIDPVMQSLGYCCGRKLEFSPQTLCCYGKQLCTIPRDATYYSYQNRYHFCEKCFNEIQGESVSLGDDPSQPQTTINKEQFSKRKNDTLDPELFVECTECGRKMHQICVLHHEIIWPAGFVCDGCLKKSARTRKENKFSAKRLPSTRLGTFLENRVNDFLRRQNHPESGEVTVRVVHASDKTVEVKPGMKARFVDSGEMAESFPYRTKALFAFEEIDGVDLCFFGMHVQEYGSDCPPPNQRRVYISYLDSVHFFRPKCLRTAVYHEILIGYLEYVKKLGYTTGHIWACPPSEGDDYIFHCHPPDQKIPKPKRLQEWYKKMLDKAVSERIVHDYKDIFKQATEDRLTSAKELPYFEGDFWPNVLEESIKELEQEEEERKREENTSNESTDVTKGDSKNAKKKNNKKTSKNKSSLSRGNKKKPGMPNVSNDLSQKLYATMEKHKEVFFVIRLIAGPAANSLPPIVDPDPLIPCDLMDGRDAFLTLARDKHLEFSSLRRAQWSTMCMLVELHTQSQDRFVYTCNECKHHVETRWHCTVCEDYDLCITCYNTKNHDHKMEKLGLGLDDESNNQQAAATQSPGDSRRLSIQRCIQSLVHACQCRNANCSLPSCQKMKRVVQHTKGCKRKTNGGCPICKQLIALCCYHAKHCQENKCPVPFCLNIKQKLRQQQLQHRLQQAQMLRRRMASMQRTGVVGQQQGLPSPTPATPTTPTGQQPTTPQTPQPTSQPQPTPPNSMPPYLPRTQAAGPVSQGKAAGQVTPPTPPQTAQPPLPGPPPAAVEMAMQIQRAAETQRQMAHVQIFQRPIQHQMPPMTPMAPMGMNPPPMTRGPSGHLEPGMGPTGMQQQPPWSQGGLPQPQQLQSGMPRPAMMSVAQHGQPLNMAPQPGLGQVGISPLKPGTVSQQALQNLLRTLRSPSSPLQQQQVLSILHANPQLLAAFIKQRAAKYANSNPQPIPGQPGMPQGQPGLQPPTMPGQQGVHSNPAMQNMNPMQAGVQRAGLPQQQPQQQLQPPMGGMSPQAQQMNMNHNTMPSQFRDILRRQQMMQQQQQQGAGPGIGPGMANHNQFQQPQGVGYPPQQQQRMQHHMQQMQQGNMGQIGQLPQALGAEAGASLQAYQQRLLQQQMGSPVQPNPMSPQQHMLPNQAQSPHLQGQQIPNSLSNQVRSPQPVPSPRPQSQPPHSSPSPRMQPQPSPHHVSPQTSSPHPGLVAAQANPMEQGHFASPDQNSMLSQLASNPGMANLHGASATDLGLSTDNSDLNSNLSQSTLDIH

For orientation: IC50 means the point on the concentration scale where inhibition reaches its midpoint. `CNC(=O)Nc1ccc2c(c1)CC[C@@]21OC(=O)N(CC(=O)N2C(C)CC[C@H]2c2cc(F)c(F)c(F)c2)C1=O` (stereo in doubt) [Example 205, 1-((R)-3′-(2-((2S,5R)-2-(3,4,5-trifluorophenyl)-5-methylpyrrolidin-1-yl)-2-oxoethyl)-2′,4′-dioxo-2,3-dihydrospiro[indene-1,5′-oxazolidine]-5-yl)-3-methylurea]: the half-inhibitory concentration (IC50) at histone acetylase p300 is 1.6 nM; in the assay with OCI-AML3, ≤ 500 nM; with Pfeiffer, ≤ 500 nM; in the assay on KARPAS-422, ≤ 500 nM; in the assay with MM.1R it was ≤ 500 nM; in the assay with MCF-7, ≤ 500 nM. Besides, the IC50 in the assay on HCC1428 was ≤ 500 nM; in the assay on KMS-20 it was ≤ 500 nM; in the assay with MM.1S, 500 to 2000 nM; with NCI-H929, ≤ 500 nM; in the assay with OPM-2, ≤ 500 nM.
On to `CNC(=O)Nc1cc2c(cc1F)[C@@]1(CC2)OC(=O)N(CC(=O)N2[C@@H](C)CC[C@H]2c2ccc(F)c(F)c2)C1=O` [Example 389, 1-((R)-3′-(2-((2S,5S)-2-(3,4-difluorophenyl)-5-methylpyrrolidin-1-yl)-2-oxoethyl)-6-fluoro-2′,4′-dioxo-2,3-dihydrospiro[indene-1,5′-oxazolidine]-5-yl)-3-methylurea], for which the IC50 was 1.9 nM on histone acetylase p300; ≤ 500 nM with OCI-AML3; ≤ 500 nM with Pfeiffer; ≤ 500 nM in the assay with KARPAS-422; ≤ 500 nM in the assay on MM.1R; ≤ 500 nM in the assay with MCF-7. For the same compound, the IC50 in the assay on HCC1428 is ≤ 500 nM; in the assay with KMS-20, ≤ 500 nM; with MM.1S, 500 to 2000 nM; in the assay with NCI-H929, ≤ 500 nM; in the assay with OPM-2, ≤ 500 nM.
As for `CNC(=O)Nc1ccc2c(c1)CC[C@@]21OC(=O)N(CC(=O)N2[C@@H](C)CC[C@H]2c2ccc(F)c(F)c2)C1=O` [Example 201], the IC50 on histone acetylase p300 is 1.6 nM; in the assay on OCI-AML3 it was ≤ 500 nM; in the assay with Pfeiffer, ≤ 500 nM; with KARPAS-422 it was ≤ 500 nM; in the assay on MM.1R, ≤ 500 nM; with MCF-7, ≤ 500 nM. The 50% inhibitory concentration (IC50) in the assay on HCC1428 is ≤ 500 nM; in the assay on KMS-20, ≤ 500 nM; in the assay on MM.1S, 500 to 2000 nM; in the assay with NCI-H929, ≤ 500 nM; in the assay on OPM-2, ≤ 500 nM.
